Measured values reported in article PMC4474090 (Journal of pharmaceutical sciences, 2012).

Tests used:
[1] = system: ICAM-1/LFA-1-mediated heterotypic T-cell adhesion; settings: compared with cIBR; cited from earlier work
[2] = system: ICAM-1/LFA-1-mediated heterotypic T-cell adhesion; assay: Inhibition of ICAM-1/LFA-1-mediated heterotypic T-cell adhesion; type: cell-based; settings: compared with CH7
[3] = system: Molt-3 T cells; settings: read-out: cytotoxicity IC50; LFA-1-expressing Molt-3 T cells; cited from earlier work
[4] = system: rat adjuvant arthritis model; assay: Suppression of RA in rat adjuvant arthritis model; type: in vivo
[5] = system: KB epithelial cells; settings: read-out: toxicity IC50; cited from earlier work
[6] = system: rat adjuvant arthritis model; type: in vivo
[7] = 0.05 mg/kg i.v. once a day, Day 14

cyclo(1,6)PRGGSV [CH7]
activity in inhibiting ICAM-1/LFA-1-mediated heterotypic T-cell adhesion [1]: activity comparable to that of cIBR

cyclo(1,6)PRGGKV [CHK7]
cell adhesion inhibitory activity [2]: lower cell adhesion inhibitory activity than the parent CH7

CN(Cc1cnc2nc(N)nc(N)c2n1)c1ccc(C(=O)N[C@@H](CCC(=O)O)C(=O)O)cc1 [MTX, Methotrexate]
IC50 [3]: 61 nM | AUC Paw Ankle Diameter ± SE [4, 7]: 2.388 ± 0.028 | Bone Resorption Score ± SE [4, 7]: 3.1 ± 0.4 | Inflammation Score ± SE [4, 7]: 4.9 ± 0.1 | ankle histology: bone resorption ([4]; 0.05 mg/kg, day 14, H&E): Moderate bone resorption was present across the physis | ankle histology: synovitis and periarticular inflammation ([4]; 0.05 mg/kg, day 14, H&E): severe synovitis (S) and periarticular inflammation | Paw Weight ± SE ([4]; arthritis rats, 0.05 mg/kg i.v. once a day day 0-14, Day 14): 3.5790 ± 0.0877 g | IC50 [5]: 27 nM | spleen histology: pyogranulomatous inflammation ([6]; 0.05 mg/kg): multi-focal small areas of pyogranulomatous inflammation | animal body weight ([6]; arthritis animals, 0.05 mg/kg, days 0-14): lost weight after day 8 | Rat Liver Weight ± SE ([6]; arthritis rats, 0.05 mg/kg i.v. once a day, Day 14): 6.1289 ± 0.1451 g
